Experimental data: ChEMBL document CHEMBL4706485, “Development of cell-permeable peptide-based PROTACs targeting estrogen receptor α” (Eur J Med Chem, 2020)
Each block holds one molecule with its values, some of them ahead of it. Calls of active or inactive are those of the source. The calls are words filed in the database; no cut-off is given here. Square brackets hold non-standard residues; d marks the D form. Peptide text beside a SMILES is read from it. Hyp = O=C(O)[C@@H]1C[C@@H](O)CN1; Ahx = NCCCCCC(=O)O

Assays:
MCF7 [1] = experiment: Cytotoxicity against human MCF7 cells assessed as reduction in cell viability at 5 to 80 uM after 48 hrs by MTT assay; type: functional, cell-based; conditions: dose 5-80 µM
[2] = target: T1, von Hippel-Lindau disease tumor suppressor/Estrogen receptor (Homo sapiens) (UniProt P03372+P40337); experiment: Protac activity at VHL/ERalpha in human MCF7 cells assessed as degradation of ERalpha protein level at 10 uM after 12 hrs by Western blot analysis; type: cell-based
T1 sequence (P03372 whole entry, looked up): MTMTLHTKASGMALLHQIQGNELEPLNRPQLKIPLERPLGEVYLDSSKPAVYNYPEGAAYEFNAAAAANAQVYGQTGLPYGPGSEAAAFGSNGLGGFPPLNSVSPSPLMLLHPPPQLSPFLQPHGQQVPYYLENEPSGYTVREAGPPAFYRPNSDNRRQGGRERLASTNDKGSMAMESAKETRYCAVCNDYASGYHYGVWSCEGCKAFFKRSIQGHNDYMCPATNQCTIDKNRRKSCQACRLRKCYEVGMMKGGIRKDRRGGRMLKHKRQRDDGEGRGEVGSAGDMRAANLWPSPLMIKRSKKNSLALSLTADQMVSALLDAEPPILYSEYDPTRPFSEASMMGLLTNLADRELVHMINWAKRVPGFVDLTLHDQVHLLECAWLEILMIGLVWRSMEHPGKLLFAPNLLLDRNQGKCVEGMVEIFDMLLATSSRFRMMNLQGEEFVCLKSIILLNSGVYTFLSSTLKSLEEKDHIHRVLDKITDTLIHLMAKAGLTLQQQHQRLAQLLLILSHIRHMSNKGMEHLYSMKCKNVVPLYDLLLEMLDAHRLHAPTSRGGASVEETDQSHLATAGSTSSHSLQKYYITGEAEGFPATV
T1 sequence (P40337 whole entry, looked up): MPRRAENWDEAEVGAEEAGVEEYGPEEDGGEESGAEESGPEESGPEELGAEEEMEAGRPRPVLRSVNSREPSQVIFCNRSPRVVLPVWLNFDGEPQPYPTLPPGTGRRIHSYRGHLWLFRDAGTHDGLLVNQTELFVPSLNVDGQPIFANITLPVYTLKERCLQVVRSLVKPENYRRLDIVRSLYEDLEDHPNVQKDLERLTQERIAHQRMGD

[3] = Drug uptake in human MCF7 cells at 10 uM FITC labelled form of compound after 12 hrs by flow cytometric analysis; type: ADME, cell-based; conditions: mcf7, 12 h
MCF7 [4] = experiment: Induction of apoptosis in human MCF7 cells assessed as viable cells at 10 uM after 12 hrs by annexinV-FITC/PI staining based flow cytometric analysis (reference value: 95.4 to 97.6%); type: functional; conditions: read-out: Activity
MCF7 [5] = experiment: Induction of apoptosis in human MCF7 cells assessed as early apoptotic cells at 10 uM after 12 hrs by annexinV-FITC/PI staining based flow cytometric analysis (reference value: 0.8 to 1.6%); type: functional
MCF7 [6] = experiment: Induction of apoptosis in human MCF7 cells assessed as late apoptotic cells at 10 uM after 12 hrs by annexinV-FITC/PI staining based flow cytometric analysis (reference value: 0.9 to 1.9%); type: functional
MCF7 [7] = experiment: Induction of apoptosis in human MCF7 cells assessed as necrotic cells at 10 uM after 12 hrs by annexinV-FITC/PI staining based flow cytometric analysis (reference value: 0.7 to 1.1%); type: functional
MCF7 [8] = experiment: Cytotoxicity against human MCF7 cells assessed as reduction in cell viability after 48 hrs by MTT assay; type: functional, cell-based
A2780 = experiment: Cytotoxicity against human A2780 cells assessed as reduction in cell viability at 5 to 80 uM after 48 hrs by MTT assay; type: functional, cell-based; conditions: dose 5-80 µM
MDA-MB-231 = experiment: Cytotoxicity against human MDA-MB-231 cells assessed as reduction in cell viability at 5 to 80 uM after 48 hrs by MTT assay; type: functional, cell-based; conditions: dose 5-80 µM
HUVEC = experiment: Cytotoxicity against human HUVEC cells assessed as reduction in cell viability at 5 to 80 uM after 48 hrs by MTT assay; type: cell-based; conditions: dose 5-80 µM
[9] = target: T1, von Hippel-Lindau disease tumor suppressor/Estrogen receptor (Homo sapiens); experiment: Protac activity at VHL/ERalpha in human A2780 cells assessed as degradation of ERalpha protein level at 10 uM after 12 hrs by Western blot analysis; type: cell-based
[10] = Drug uptake in human MCF7 cells FITC labelled form of compound by flow cytometric analysis; type: ADME, cell-based; conditions: dose lower 2 µM, time lower 2 hrs, dose upper 16 µM, time upper 24 hrs
[11] = Drug uptake in human MCF7 cells at 10 uM FITC labelled form of compound after 3 hrs by Hoechst 33258 staining based fluorescence microscopic analysis; type: ADME, cell-based; conditions: mcf7, 3 h
MCF7 [12] = experiment: Induction of apoptosis in human MCF7 cells assessed as increase in late apoptotic cells after 12 hrs by annexinV-FITC/PI staining based flow cytometric analysis; type: functional, cell-based; conditions: dose 5-20 µM
MCF7 [13] = experiment: Induction of apoptosis in human MCF7 cells assessed as increase in necrotic cells after 12 hrs by annexinV-FITC/PI staining based flow cytometric analysis; type: functional, cell-based; conditions: dose 5-20 µM
MCF7 [14] = experiment: Induction of apoptosis in human MCF7 cells assessed as viable cells at 5 uM after 12 hrs by annexinV-FITC/PI staining based flow cytometric analysis (reference value: 95.4 to 97.6%); type: functional; conditions: read-out: Activity
MCF7 [15] = experiment: Induction of apoptosis in human MCF7 cells assessed as early apoptotic cells at 5 uM after 12 hrs by annexinV-FITC/PI staining based flow cytometric analysis (reference value: 0.8 to 1.6%); type: functional
MCF7 [16] = experiment: Induction of apoptosis in human MCF7 cells assessed as late apoptotic cells at 5 uM after 12 hrs by annexinV-FITC/PI staining based flow cytometric analysis (reference value: 0.9 to 1.9%); type: functional
MCF7 [17] = experiment: Induction of apoptosis in human MCF7 cells assessed as necrotic cells at 5 uM after 12 hrs by annexinV-FITC/PI staining based flow cytometric analysis (reference value: 0.7 to 1.1%); type: functional
MCF7 [18] = experiment: Induction of apoptosis in human MCF7 cells assessed as viable cells at 20 uM after 12 hrs by annexinV-FITC/PI staining based flow cytometric analysis (reference value: 95.4 to 97.6%); type: functional; conditions: read-out: Activity
MCF7 [19] = experiment: Induction of apoptosis in human MCF7 cells assessed as early apoptotic cells at 20 uM after 12 hrs by annexinV-FITC/PI staining based flow cytometric analysis (reference value: 0.8 to 1.6%); type: functional
MCF7 [20] = experiment: Induction of apoptosis in human MCF7 cells assessed as late apoptotic cells at 20 uM after 12 hrs by annexinV-FITC/PI staining based flow cytometric analysis (reference value: 0.9 to 1.9%); type: functional
MCF7 [21] = experiment: Induction of apoptosis in human MCF7 cells assessed as necrotic cells at 20 uM after 12 hrs by annexinV-FITC/PI staining based flow cytometric analysis (reference value: 0.7 to 1.1%); type: functional
[22] = target: T1, von Hippel-Lindau disease tumor suppressor/Estrogen receptor (Homo sapiens); experiment: Protac activity at VHL/ERalpha in human MCF7 cells assessed as increase in ubiquitinated-ERalpha at 10 uM after 6 hrs in presence of MG-132 by Western blot analysis; type: cell-based
[23] = target: von Hippel-Lindau disease tumor suppressor/Progesterone receptor (Homo sapiens) (UniProt P06401+P40337); experiment: Protac activity at VHL/PR in human MCF7 cells assessed as degradation of PR protein level at 10 uM after 12 hrs by Western blot analysis; type: cell-based
von Hippel-Lindau disease tumor suppressor/Progesterone receptor (Homo sapiens), sequence (P06401 whole entry, looked up): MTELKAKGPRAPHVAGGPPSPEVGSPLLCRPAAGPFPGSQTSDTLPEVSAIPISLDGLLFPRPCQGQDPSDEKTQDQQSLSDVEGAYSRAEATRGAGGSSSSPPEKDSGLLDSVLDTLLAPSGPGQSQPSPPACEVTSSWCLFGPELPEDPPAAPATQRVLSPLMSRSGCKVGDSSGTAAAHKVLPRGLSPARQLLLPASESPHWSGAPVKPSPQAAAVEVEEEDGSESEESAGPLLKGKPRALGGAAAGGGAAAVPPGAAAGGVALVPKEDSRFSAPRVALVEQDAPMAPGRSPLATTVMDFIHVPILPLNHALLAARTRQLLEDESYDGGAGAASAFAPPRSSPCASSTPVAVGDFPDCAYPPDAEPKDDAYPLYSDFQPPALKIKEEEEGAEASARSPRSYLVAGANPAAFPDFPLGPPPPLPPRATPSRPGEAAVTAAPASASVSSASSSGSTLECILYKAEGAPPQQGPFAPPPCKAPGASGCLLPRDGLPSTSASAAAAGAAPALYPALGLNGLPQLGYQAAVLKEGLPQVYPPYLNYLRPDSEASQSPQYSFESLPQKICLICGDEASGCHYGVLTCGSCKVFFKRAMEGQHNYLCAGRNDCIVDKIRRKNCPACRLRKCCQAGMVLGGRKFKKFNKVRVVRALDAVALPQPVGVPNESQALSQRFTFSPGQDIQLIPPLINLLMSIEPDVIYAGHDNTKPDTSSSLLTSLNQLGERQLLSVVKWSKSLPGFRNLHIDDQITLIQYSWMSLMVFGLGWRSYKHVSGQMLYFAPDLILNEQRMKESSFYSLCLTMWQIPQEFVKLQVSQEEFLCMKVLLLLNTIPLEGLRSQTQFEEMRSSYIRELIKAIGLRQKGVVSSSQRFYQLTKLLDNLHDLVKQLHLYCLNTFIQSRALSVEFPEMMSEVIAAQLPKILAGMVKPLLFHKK
von Hippel-Lindau disease tumor suppressor/Progesterone receptor (Homo sapiens), sequence (P40337 whole entry, looked up): as the sequence (P40337 whole entry, looked up) above

[24] = target: von Hippel-Lindau disease tumor suppressor/Vitamin D3 receptor (Homo sapiens) (UniProt P11473+P40337); experiment: Protac activity at VHL/VDR in human MCF7 cells assessed as degradation of VDR protein level at 10 uM after 12 hrs by Western blot analysis; type: cell-based
von Hippel-Lindau disease tumor suppressor/Vitamin D3 receptor (Homo sapiens), sequence (P11473 whole entry, looked up): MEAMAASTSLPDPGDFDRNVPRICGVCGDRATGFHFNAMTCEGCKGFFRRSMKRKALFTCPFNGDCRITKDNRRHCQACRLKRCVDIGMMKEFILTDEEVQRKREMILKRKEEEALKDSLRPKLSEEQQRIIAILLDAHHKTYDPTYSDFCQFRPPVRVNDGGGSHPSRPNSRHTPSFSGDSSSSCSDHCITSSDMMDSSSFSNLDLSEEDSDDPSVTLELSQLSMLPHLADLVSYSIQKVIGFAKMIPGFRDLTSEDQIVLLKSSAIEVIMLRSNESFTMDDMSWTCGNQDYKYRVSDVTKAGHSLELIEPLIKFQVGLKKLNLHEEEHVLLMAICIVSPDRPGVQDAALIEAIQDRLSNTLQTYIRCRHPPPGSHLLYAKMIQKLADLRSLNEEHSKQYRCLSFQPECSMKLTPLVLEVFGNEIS
von Hippel-Lindau disease tumor suppressor/Vitamin D3 receptor (Homo sapiens), sequence (P40337 whole entry, looked up): as the sequence (P40337 whole entry, looked up) above

4T1 = experiment: Antitumour activity against mouse 4T1 cells implanted in BALB/c mouse assessed as inhibition in tumor growth at 10 umol/kg administered peri-tumor injection for 21 days relative to control; type: functional; conditions: 4T1, 504 h, time 21 day, read-out: TGI
[25] = Toxicity in BALB/c mouse implanted with mouse 4T1 cells assessed as change in body weight at 10 umol/kg administered peri-tumor injection for 21 days; conditions: in vivo, other, 504 h, dose 10 µmol/kg, time 21 day
MCF7 [26] = experiment: Cytotoxicity against human MCF7 cells assessed as reduction in cell viability at 20 uM after 48 hrs by MTT assay; type: functional, cell-based

Activity [2]: Active
Activity [9]: Active
Drug uptake [3]: Active
Drug uptake [10]: Dose-dependent effect and Tde
Drug uptake [11]: Active
Activity [22]: Active
Activity [23]: inactive
Activity [24]: inactive
SMILES: CC[C@H](C)[C@H](NC(=O)[C@H](Cc1ccc(O)cc1)NC(=O)[C@@H]1C[C@@H](O)CN1C(=O)[C@H](C)NC(=O)[C@H](CC(C)C)NC(=O)CCCCCNC(=O)[C@H](CCC(N)=O)NC(=O)C(CC(C)(C)C)NC(=O)C(CC(C)(C)C)NC(=O)[C@H](CCCNC(=N)N)NC(=O)[C@@H]1CNC(=O)C(N[C@@H](CCCNC(=N)N)C(N)=O)CC(=O)N[C@@H]([C@@H](C)CC)C(=O)NC(CC(C)(C)C)C(=O)N1)C(N)=O (some centres undefined)
Activity (MCF7 [1]): Active
Activity (MCF7 [8]): Dose-dependent effect
IC50 (MCF7 [8]; MCF7, 48 h): 9.7 µM
Activity (A2780): Active
Activity (MDA-MB-231): Active
Activity (HUVEC): Non-Toxic
Activity (MCF7 [12]): Dose-dependent effect
Activity (MCF7 [13]): Dose-dependent effect
viability at 10 µM (MCF7 [4]): 59.5%
Activity (MCF7 [5]): 0.7%
Activity (MCF7 [6]): 13.6%
Activity (MCF7 [7]): 26.2%
viability at 5 µM (MCF7 [14]): 87.2%
Activity (MCF7 [15]): 1.3%
Activity (MCF7 [16]): 6%
Activity (MCF7 [17]): 5.5%
viability at 20 µM (MCF7 [18]): 28.8%
Activity (MCF7 [19]): 0.4%
Activity (MCF7 [20]): 26.2%
Activity (MCF7 [21]): 44.6%
inhibition in vivo at 10 µmol/kg (4T1): 67%
Activity [25]: Non-Toxic

Activity [2]: Active
Drug uptake [3]: Active
SMILES: CC[C@H](C)[C@H](NC(=O)[C@H](Cc1ccc(O)cc1)NC(=O)[C@@H]1C[C@@H](O)CN1C(=O)[C@H](C)NC(=O)[C@H](CC(C)C)NC(=O)CCCCCNC(=O)[C@H](CCC(N)=O)NC(=O)C(CC(C)(C)C)NC(=O)[C@H](CC(C)C)NC(=O)[C@H](CCCNC(=N)N)NC(=O)[C@@H]1CNC(=O)C(N[C@@H](CCCNC(=N)N)C(N)=O)CC(=O)N[C@@H]([C@@H](C)CC)C(=O)N[C@@H](CC(C)C)C(=O)N1)C(N)=O (some centres undefined)
Activity (MCF7 [1]): Active
viability at 10 µM (MCF7 [4]): 76.7%
Activity (MCF7 [5]): 0.4%
Activity (MCF7 [6]): 7.7%
Activity (MCF7 [7]): 15.2%

Activity [2]: Active
Drug uptake [3]: Active
SMILES: CC[C@H](C)[C@H](NC(=O)[C@H](Cc1ccc(O)cc1)NC(=O)[C@@H]1C[C@@H](O)CN1C(=O)[C@H](C)NC(=O)[C@H](CC(C)C)NC(=O)CCCCCNC(=O)[C@H](CCC(N)=O)NC(=O)[C@H](CC(C)C)NC(=O)[C@H](CC(C)C)NC(=O)[C@H](CCCNC(=N)N)NC(=O)[C@H](Cc1c[nH]cn1)NC(=O)[C@H](CC(C)C)NC(=O)[C@@H](NC(=O)[C@H](CCCCN)NC(=O)[C@@H](N)Cc1c[nH]cn1)[C@@H](C)CC)C(N)=O (H-HKILHRLLQ[Ahx]LA[Hyp]YI-NH2)
Activity (MCF7 [26]): Active
viability at 10 µM (MCF7 [4]): 93.4%
Activity (MCF7 [5]): 0.9%
Activity (MCF7 [6]): 2.7%
Activity (MCF7 [7]): 2.9%

The next lines start with the molecule.

SMILES: CC[C@H](C)[C@H](NC(=O)[C@H](Cc1ccc(O)cc1)NC(=O)[C@@H]1C[C@@H](O)CN1C(=O)[C@H](C)NC(=O)[C@H](CC(C)C)NC(=O)CCCCCNC(=O)[C@H](CCC(N)=O)NC(=O)[C@H](CC(C)C)NC(=O)C(CC(C)(C)C)NC(=O)[C@H](CCCNC(=N)N)NC(=O)[C@@H]1CNC(=O)C(N[C@@H](CCCNC(=N)N)C(N)=O)CC(=O)N[C@@H]([C@@H](C)CC)C(=O)N[C@@H](CC(C)C)C(=O)N1)C(N)=O (some centres undefined)
Activity (MCF7 [1]): Active
Activity [2]: Active
Drug uptake [3]: Active
viability at 10 µM (MCF7 [4]): 78.5%
Activity (MCF7 [5]): 0.9%
Activity (MCF7 [6]): 7.9%
Activity (MCF7 [7]): 12.7%

SMILES: CC[C@H](C)[C@H](NC(=O)[C@H](Cc1ccc(O)cc1)NC(=O)[C@@H]1C[C@@H](O)CN1C(=O)[C@H](C)NC(=O)[C@H](CC(C)C)NC(=O)CCCCCNC(=O)[C@H](CCC(N)=O)NC(=O)[C@H](CC(C)C)NC(=O)[C@H](CC(C)C)NC(=O)[C@H](CCCNC(=N)N)NC(=O)[C@@H]1CNC(=O)C(N[C@@H](CCCNC(=N)N)C(N)=O)CC(=O)N[C@@H]([C@@H](C)CC)C(=O)N[C@@H](CC(C)C)C(=O)N1)C(N)=O (some centres undefined)
Activity (MCF7 [1]): Active
Activity [2]: Active
Drug uptake [3]: Active
viability at 10 µM (MCF7 [4]): 85%
Activity (MCF7 [5]): 1.3%
Activity (MCF7 [6]): 5.8%
Activity (MCF7 [7]): 8%
inhibition in vivo at 10 µmol/kg (4T1): 52%
Activity [25]: Non-Toxic

SMILES: CC/C(=C(\c1ccccc1)c1ccc(OCCN(C)C)cc1)c1ccccc1 [TAMOXIFEN]
Activity (MCF7 [1]): Active
inhibition in vivo at 10 µmol/kg (4T1): 36%

SMILES: CC[C@H](C)[C@H](NC(=O)[C@H](Cc1ccc(O)cc1)NC(=O)[C@@H]1C[C@@H](O)CN1C(=O)[C@H](C)NC(=O)[C@H](CC(C)C)NC(=O)CCCCCNC(=O)[C@H](CCC(N)=O)NC(=O)[C@H](CC(C)C)NC(=O)[C@H](CC(C)C)NC(=O)[C@H](CCCNC(=N)N)NC(=O)[C@@H]1CNC(=O)C(N[C@@H](CCCNC(=N)N)C(N)=O)CC(=O)N[C@@H]([C@@H](C)CC)C(=O)NC(CC(C)(C)C)C(=O)N1)C(N)=O (some centres undefined)
Activity (MCF7 [1]): Active
Activity [2]: Active
Drug uptake [3]: Active
viability at 10 µM (MCF7 [4]): 80.2%
Activity (MCF7 [5]): 0.7%
Activity (MCF7 [6]): 7.1%
Activity (MCF7 [7]): 11.9%
